Results: patent publication US20260159481A1, “INDOLE DERIVATIVE WITH SUBSTITUENT AND PHARMACEUTICAL USE” (MITOIMMUNE THERAPEUTICS INC., priority 2023, published 2026)

What was measured:
cardiac cells (H9C2) [1] = experiment: Protective effect against cell death due to RSL3 (LDH release), H9C2; type: cell-based; conditions: Rattus norvegicus, RSL3 0.5 μM, 24 hours
Method: (§1) To confirm cell death protection effects on cardiac cells, adrenal medullary cells, renal fibroblasts, retinal epithelial cells, lung epithelial cells, renal proximal tubular epithelial cells, hippocampal neurons and fibroblasts, each type of cells were seeded at 4×10^3 to 1.2×10^4 cells/well in a 96-well plate and cultured for 18 to 24 hours. The example compounds were diluted to have the final concentration of 0.001, 0.003, 0.01, 0.3, 1, 3, and 10 μM, respectively, and then added to different wells and cultured for 15 to 20 minutes. […] To confirm the cell death protection effect of the example compounds, the degree of extracellular secretion of lactate dehydrogenase (LDH) was measured using a cytotoxicity LDH assay kit [Dojindo; CK12]. Briefly, at the end of 24-hour treatment of each type of cells with RSL3, 70 μL of the supernatant was taken from the 96-well plate where the cells were cultured and transferred to a new 96-well plate. The assay buffer included in the kit was added at 70 μL/well (equal to that of the sample) and the plate was covered with foil to block light and allowed to react for 15 to 20 minutes at room temperature. While observing a color change of the sample, 35 µL/well of a stop solution was added, an absorbance at 490 nm was measured using an iD3 spectrophotometer, and an EC50 value was calculated.

[2] = system: renal proximal tubular epithelial cells (HK2); experiment: Protective effect against cell death due to RSL3 (LDH release), HK2; type: cell-based; conditions: Epithelial cell, RSL3 0.3 μM, 24 hours
Method: as §1

[3] = system: hippocampal neurons (HT-22); experiment: Protective effect against cell death due to RSL3 (LDH release), HT-22; type: cell-based; conditions: Mus musculus, RSL3 0.3 μM, 24 hours
Method: as §1

[4] = system: renal fibroblasts (NRK-49F); experiment: Protective effect against cell death due to RSL3 (LDH release), NRK-49F; type: cell-based; conditions: Rattus norvegicus, RSL3 3 μM, 24 hours
Method: as §1

fibroblasts (NIH/3T3) = experiment: Protective effect against cell death due to RSL3 (LDH release), NIH/3T3; type: cell-based; conditions: Mus musculus, NIH3T3, RSL3 3 μM, 24 hours
Method: as §1

[5] = system: adrenal medullary cells (PC-12); experiment: Protective effect against cell death due to RSL3 (LDH release), PC-12; type: cell-based; conditions: Rattus norvegicus, RSL3 0.3 μM, 24 hours
Method: as §1

[6] = system: retinal epithelial cells (ARPE-19); experiment: Protective effect against cell death due to RSL3 (LDH release), ARPE-19; type: cell-based; conditions: Homo sapiens, RSL3 0.3 μM, 24 hours
Method: as §1

[7] = system: lung epithelial cells (MLE-12); experiment: Protective effect against cell death due to RSL3 (LDH release), MLE-12; type: cell-based; conditions: MLE12, RSL3 1 μM, 24 hours
Method: as §1

cardiac cells (H9C2) [8] = experiment: Protective effect against t-BHP-induced cell death in cardiac cells (LDH release); type: cell-based; conditions: Rattus norvegicus, t-BHP 400 PM, 2 hours, read-out: EC50, protective effect against cell death due to t-BHP induction
Method: To confirm a protective effect on cardiac cells, H9C2 cells were seeded at 1.5×10^4 cells/well in a 96-well plate and cultured for 24 hours. The example compounds were diluted to have the final concentration of 0.001, 0.01, 0.03, 0.1, 0.3, 1, 3, 10, and 30 PM, respectively, and then added to different wells, and the resulting cells were cultured for 15 to 20 minutes. Tert-butyl hydroperoxide (t-BHP) was treated to have the final concentration of 400 PM, and the resulting cells were cultured for 2 hours. To confirm the cell death protection effect of each compound, the degree of extracellular secretion of lactate dehydrogenase (LDH) was measured using a cytotoxicity LDH assay kit [Dojindo; CK12]. Briefly, after 2 hours of t-BHP treatment on the cells, 70 μL of the supernatant was taken from the 96-well plate where the cells were cultured and transferred to a new 96-well plate. The assay buffer included in the kit was added at 70 μL/well (equal to that of the sample) and the plate was covered with foil to block light and allowed to react for 15 minutes at room temperature. While observing a color change of each sample, 35 μL/well of a stop solution was added, an absorbance at 490 nm was measured using an iD3 spectrophotometer, and an EC50 value was calculated.

[9] = Pharmacokinetics in plasma after oral administration to ICR mice; type: in vivo; conditions: oral 10 mg/kg
Method: Pharmacokinetic parameters may include the maximum plasma concentration (Cmax), the time to reach the maximum plasma concentration (Tmax), the area under the plasma concentration-time curve (AUCinf), and a half-life (t1/2).
Example Compound 27 was orally administered to ICR mice at a dose of 10 mg/kg. Drug concentrations in the plasma of mice were measured by HPLC-MS/MS spectroscopy 0.5, 1, 2, 4, 8, or 24 hours after administration.
The comparative example compound was orally administered to ICR mice at a dose of 10 mg/kg. The drug concentrations in the plasma of the mice were measured by HPLC-MS/MS 0.5, 1, 2, 4, 8, or 24 hours after administration.

SMILES | EC50 (cardiac cells (H9C2) [1]) [nM] | EC50 [2] [nM] | EC50 [3] [nM] | EC50 [4] [nM] | EC50 (fibroblasts (NIH/3T3)) [nM] | EC50 [5] [nM] | EC50 [6] [nM] | EC50 [7] [nM] | EC50 (cardiac cells (H9C2) [8]) [nM] | further results
c1ccc(-c2cc3cc(COCCN4CCOCC4)cc(NC4CCCC4)c3[nH]2)cc1 [Example 41, N-cyclopentyl-5-((2-morpholinoethoxy)methyl)-2-phenyl-1H-indol-7-amine] | ≤ 100 | ≤ 100 | ≤ 100 | ≤ 100 | 100 to 1000 | ≤ 100 | ≤ 100 | ≤ 100 | ≤ 300 | –
FC(F)COCc1cc(NC2CCOCC2)c2[nH]c(-c3ccccc3)cc2c1 [Example 40, 5-((2,2-difluoroethoxy)methyl)-2-phenyl-N-(tetrahydro-2H-pyran-4-yl)-1H-indol-7-amine] | ≤ 100 | ≤ 100 | ≤ 100 | ≤ 100 | 100 to 1000 | ≤ 100 | ≤ 100 | ≤ 100 | ≤ 300 | –
O=C(NC1CC1)c1cc(NCc2ccncc2)c2[nH]c(-c3ccccc3)cc2c1 [Example 8, N-cyclopropyl-2-phenyl-7-((pyridin-4-ylmethyl)amino)-1H-indole-5-carboxamide] | 100 to 1000 | 100 to 1000 | > 1000 | 100 to 1000 | 100 to 1000 | 100 to 1000 | ≤ 100 | 100 to 1000 | ≤ 300 | –
CCNS(=O)(=O)c1cc(NC2CCCC2)c2[nH]c(-c3ccccc3)cc2c1 [Example 22, 7-(cyclopentylamino)-N-ethyl-2-phenyl-1H-indole-5-sulfonamide] | ≤ 100 | ≤ 100 | 100 to 1000 | ≤ 100 | 100 to 1000 | 100 to 1000 | ≤ 100 | 100 to 1000 | 300 to 1000 | –
CC1(O)CCC(OCc2cc(NC3CCOCC3)c3[nH]c(-c4ccccc4)cc3c2)CC1 (centres unmarked) [Example 36, 1-methyl-4-((2-phenyl-7-((tetrahydro-2H-pyran-4-yl)amino)-1H-indol-5-yl)methoxy)cyclohexan-1-ol] | ≤ 100 | ≤ 100 | 100 to 1000 | ≤ 100 | 100 to 1000 | 100 to 1000 | ≤ 100 | 100 to 1000 | ≤ 300 | –
OCCOCc1cc(NC2CCOCC2)c2[nH]c(-c3ccccc3)cc2c1 [Example 27, 2-((2-phenyl-7-((tetrahydro-2H-pyran-4-yl)amino)-1H-indol-5-yl)methoxy)ethan-1-ol] | ≤ 100 | ≤ 100 | ≤ 100 | ≤ 100 | ≤ 100 | ≤ 100 | ≤ 100 | 100 to 1000 | ≤ 300 | Cmax ([9]; mouse, plasma): 4440 ng/mL; Tmax ([9]; mouse, plasma): 1 h; half-life ([9]; mouse, plasma): 2.83 h; AUC(0-inf) ([9]; mouse, plasma, read-out: area under the plasma concentration-time curve (AUCinf)): 25100 ng·h/mL; concentration at 0.5 h ([9]; mouse, plasma, 0.5 hr): 3830 ng/mL; concentration at 1 h ([9]; mouse, plasma, 1 hr): 4440 ng/mL; concentration at 2 h ([9]; mouse, plasma, 2 hr): 3780 ng/mL; concentration at 4 h ([9]; mouse, plasma, 4 hr): 2800 ng/mL; concentration at 8 h ([9]; mouse, plasma, 8 hr): 1080 ng/mL; concentration at 24 h ([9]; mouse, plasma, 24 hr): 1 ng/mL; exposure (AUCinf) relative to the comparative example compound [9]: approximately 5 times; half-life relative to the comparative example compound [9]: approximately 2 times; maximum plasma concentration (Cmax) relative to the comparative example compound [9]: approximately 2 times; AUCinf ([9]; plasma): 25,115 ng · hr/mL
